Measurements as given in patent US11402367B2, “Integrated multi-electrode array and trans-endothelial electrical resistance in organ-on-a-chip microsystems” (President and Fellows of Harvard College, priority 2017, dated 2022).

Key:
[1] = system: endothelial layer (HUVECs); assay type: cell-based, human; conditions: adherens junction staining; FIGS. 4A-4C, 9A-9B, 10A-10C
Experimental: Cardiomyocytes are seeded at 2*10^6 cell per mL in the basal microchannel, followed by 3 hours to overnight inculcation, before connecting both channels 116, 117, 216, 217 to flow at 60 microliters (“μL”)/hr. Flow is controlled by a peristaltic pump ([…]) and connections re in […] tubing (Cole-Parmer) having a 0.511 inner diameter. […] To challenge the endothelial barrier TNF (Sigma) is added at 2 μg/mL in the bottom microchannel 117, 217 during overnight flow. Isoproterenol (Sigma) 50 nanomolar (“nM”) is added to the endothelial microchannel for 30 minutes followed by MEA measurement. Chips are rinsed in phosphate-buffered saline and fixated in 4% paraformaldehyde (Sigma) for 15 minutes at room temperature. ICC is carried out after permeabilization in phosphate-buffered saline with 0.05-0.1% Triton X-100 (Sigma) and blocking for 30 minutes in 3-5% Bovine Serum Albumin (Jackson ImmunoResearch, West Grove, Pa.) or 10% goat serum in phosphate-buffered saline with 0.05-0.1% Triton-X 100. Primary antibodies are applied in 2% goat serum or 0.5% BSA over-night at 4° C. or at RT The following primary antibodies are used for ICC experiments: mouse anti-vascular endothelial (VE)-cadherin (Abcam, 1:100), alpha-actinin (Abcam, 1:200) Cells are washed three times in phosphate-buffered saline with 0.05-0.1% Triton-X 100, followed by staining with secondary antibody staining for 30-60 min at RT. […]

[2] = system: human induced pluripotent stem cell-derived cardiomyocytes (hiPSC-CMs, Cor.4U); assay: MEA measurement of cardiac field potentials in the MEA-TEER Heart-on-Chip; assay type: cell-based; conditions: isoproterenol 50 nM; basal beat rate 60 beats per minute; FIG. 5C
Text: HUVECs (Lonza) were expanded in EGM media (Lonza) and used at passages 2-6 in the chip experiments. Human induced pluripotent stem cell-derived cardiomyocytes hiPSC-CMs, Cor.4U, Axiogenesis) were handled according to the vendor's instructions and used a passage 1 after thawing. Briefly, cryopreserved cells were thawed on fibronectin-coated cell culture vessels in the presence of 5 […] puromycin to select for MYH6-positive cells. Three hours after thawing, the puromycin containing media was gently refreshed to wash out remaining cryopreservant (DMSO). Twenty-four hours after seeding, cell culture media was refreshed without puromycin. The following day, the cardiomyocytes were replated into the chips using 0.5% trypsin. […]
Spontaneous cardiac field potentials (“FPs”) are recorded from cardiomyocytes using Platinum and Platinum Black MEAs with the commercial Multi-Channel-System USB-MEA60-Inv-BC-System, Multi-Channel-Systems (MCS) GmbH. […] Cardiac FPs are recorded for 120 seconds for each measurement using Cardio2D software and are analyzed with Cardio2D+ (both from Multi Channel Systems). Measured parameters, including FP duration (FPD, milliseconds), peak-to-peak interval (PPI, seconds), beating rate (beats per minute), and conduction velocity (CV, centimer s_1) are exported into Microsoft Excel files for further analysis. […]

[3] = system: myocardial tissue (cardiomyocytes); assay: Immunohistochemistry of myocardial tissue on the MEA platform (alpha-actinin); assay type: cell-based, human; conditions: isoproterenol treatment; FIGS. 4D-4E
Experimental: (§1) Cardiomyocytes are seeded at 2*10^6 cell per mL in the basal microchannel, followed by 3 hours to overnight inculcation, before connecting both channels 116, 117, 216, 217 to flow at 60 microliters (“μL”)/hr. Flow is controlled by a peristaltic pump (Ismatech) and connections re in Pharmed tubing (Cole-Parmer) having a 0.511 inner diameter. […] To challenge the endothelial barrier TNF (Sigma) is added at 2 μg/mL in the bottom microchannel 117, 217 during overnight flow. Isoproterenol (Sigma) 50 nanomolar (“nM”) is added to the endothelial microchannel for 30 minutes followed by MEA measurement.
Chips are rinsed in phosphate-buffered saline and fixated in 4% paraformaldehyde (Sigma) for 15 minutes at room temperature. ICC is carried out after permeabilization in phosphate-buffered saline with 0.05-0.1% Triton X-100 (Sigma) and blocking for 30 minutes in 3-5% Bovine Serum Albumin (Jackson ImmunoResearch, West Grove, Pa.) or 10% goat serum in phosphate-buffered saline with 0.05-0.1% Triton-X 100. Primary antibodies are applied in 2% goat serum or 0.5% BSA over-night at 4° C. or at RT […]

[4] = 100 nM isoproterenol; mono-channel fluidic system; cited from earlier work
[5] = system: endothelial layer (HUVECs); assay: TEER and capacitance measurement of the endothelial layer in the MEA-TEER Heart-on-Chip; assay type: cell-based, human; conditions: for effect on TEER values / endothelial barrier: TNF-α 2 μg/mL overnight, isoproterenol 50 nM, 30 minutes, FIG. 5A, 5B
Experimental: The MEA-TEER chips are surface-treated with an oxygen plasma (Atto, Diener electronic GmbH, Germany at O2, 15 standard cubic centimeters per minute (“sccm”), 100 Watts, 30 seconds) to create hydrophilic, sterile, flow systems. Both apical and basal channels 116, 117, 216, 217 are coated overnight with human fibronectin (Sigma at 100 micrograms (“μg”/mL in PBS with Mg^2+ and Ca^2+ at 4° C.). HUVECs were seeded at 2*10^6 cell per mL in the apical microchannel, and, then, left static overnight.
as §1
TEER measurements are carried out by applying a 10 microamperes (“μA”) sinusoidal excitation signal in a four-electrode set-up in the frequency range 100 KHz-10 hertz (“Hz”). AC measurements are preferable for TEER measurements to avoid charging effects over the cell membranes and the electrodes. The four-electrode set-up, utilizing one opposing pair of electrodes for current excitation and another opposing pair of electrodes for voltage sensing, provides benefits of eliminating contact resistance associated with two electrode measurements.
TEER and capacitance values are derived using the equivalent circuit and model depicted in FIGS. 3A, 6A, and 6B. A resistor Rsol describes the solution conductivity, while the electric response of the endothelial layer is modeled using a resistor (RTEER) and a constant phase element (CPEt) in parallel to extract TEER of the cell-cell junctions, as well as the contribution of cell membrane capacitance and, indirectly, the overall monolayer surface area.

hamster cardiomyocytes = conditions: TNF-α at 200 nanograms/ml^3; cited from earlier work

| Compound | integrity of the endothelial barrier by ICC [1] | increase in beat rate [2] | changes of cardiomyocytes by IHC versus control [3] | change of beat rate [4] | effect on TEER values / endothelial barrier [5] | contractility of hamster cardiomyocytes (hamster cardiomyocytes) | capacitance after the TNF-α challenge ([5]; TNF-α 2 μg/mL, from 194±33 nF after stabilization at day 2) | effect on TEER capacitance ([5]; TNF-α addition, FIG. 5B) | TEER values after TNF-α challenge ([5]; after 24 hours TNF-α 2 μg/mL, dropping from 230±45 Ω before challenge, p<0.01) |
| --- | --- | --- | --- | --- | --- | --- | --- | --- | --- |
| CC(C)NCC(O)c1ccc(O)c(O)c1 (stereo not shown) [isoproterenol] | does not show any change in integrity of a barrier | 60% | do not show major changes | 60% | does not affect the endothelial barrier |  |  |  |  |
| TNF-α |  |  |  |  | TEER values decrease to the same values as ECM-coated chips without cells chip | reduce contractility | 2968±52 nF | increasing the capacitance significantly | 15±13 Ω |
